Results on 11 compounds are retold here after US9682965B2, “Fumagillol heterocyclic compounds and methods of making and using same” (Zafgen, Inc., priority 2015, dated 2017).

Series [1] concerns pregnant Sprague Dawley rats (embryo/fetal development). The text has this:
Study Summary Rat Embryofetal:
The objective of this study design was to evaluate the potential effects of disclosed compounds on embryo/fetal development when given subcutaneously to pregnant rats once every three days during the critical period of organogenesis (Gestation Days 6-18). Female, Sprague Dawley rats, approximately 10 weeks of age, time bred, were ordered from a certified vendor and housed individually housed in stainless steel cages suspended over flush pans, on a 12-hour light-dark cycle (0700-1900) at 20-26° C. and 30-70% humidity. Rats were fed a standard rodent chow and provided water ad libitum. Rats were received and housed in the facility for a period of approximately 1 to 2 days.
Compounds were formulated using 100% DMSO mixed in Sterile Water for Injection, resulting in 2% DMSO solution in water. If necessary, due to limited solubility of a test article, a higher percentage of DMSO solution in water was used. Groups of 8 mated and presumed pregnant female rats were given subcutaneous doses of vehicle or test article, once every three days, beginning on Gestation Day 6 and ending on Gestation Day 18 (Days 6, 9, 12, 15, and 18), maintained two more days, and then euthanized and necropsied on Gestation Day 20. Body weights was recorded for all animals on Gestation Days 5 (purpose of randomization), 6, 9, 12, 15, 18, and 20 (scheduled euthanasia). Food consumption by weight was recorded on Gestation Days 6, 9, 12, 15, 18, and 20 (scheduled termination).
At necropsy, the dams were examined visually for external abnormalities including palpable masses. The abdominal, thoracic, and cranial cavities and their contents were examined for abnormalities and findings will be recorded. The reproductive tract were examined to record the number of ovarian corpora lutea, the number and location of uterine implantation sites noting the position of the cervix, and the number of early resorptions, late resorptions, live fetuses, and dead fetuses. For dead fetuses and late resorptions, crown-to-rump length and weight were recorded, if possible, and the fetus was discarded. For viable fetuses, weight, sex, and grossly visible external abnormalities were recorded.

For series [2], the system named is Male Sprague Dawley rats on high fat diet. The series is described as follows: 11 day rat DIO model (body weight, food intake, hematology, blood chemistries). It counts as in vivo. Particulars: 264 h, read-out: DIO Rat 11-day weight loss vs vehicle. The gist of the method:
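Male Sprague Dawley rats on 45% high-fat diet, acclimated 3 days to vehicle injections, then given compound (0.03-1.0 mg/kg) or vehicle (10% DMSO in water) sc once daily for 11 days. Body weight and food intake recorded daily. Blood taken about 2 h after the final dose for hematology and chemistry.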

Series [3] relates to Diet Induced Obese (DIO) C57BL/6 mice. Put plainly: 10 day DIO mouse model (body weight, food intake, hematology, blood chemistry). It counts as in vivo. The following applies: 240 h, read-out: DIO Mouse 10-day weight loss vs vehicle; for inhibition in vivo at 0.1 mg/kg: 0.1 mpk sc; for inhibition in vivo at 1 mg/kg: 1.0 mpk sc. The gist of the method: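 DIO C57BL/6 mice on 60% kcal fat diet received compounds subcutaneously once daily for 10 days at 1.0, 0.5, 0.3, 0.1 or 0.03 mpk, in 10% DMSO in water, after 3-day vehicle acclimation. Body weight and food intake were recorded daily. Hematology and blood chemistry were taken on Day 11, 24 h post-final dose.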

A further series concerns the target recombinant human MetAP2 (Homo sapiens (Human), UniProt P50579). The series is described as follows: recombinant human MetAP2 enzyme inhibition assay. Particulars: recombinant human MetAP2, MAS peptide substrate, 25 minutes at 25° C. It counts as biochemical. The protocol:
Compounds are tested for their capacity to inhibit recombinant human MetAP2 activity using the following assay.
Flag tagged Human recombinant MetAP2 expressed and isolated for use as the enzyme source. 10 mM stock solutions of compounds were prepared in 100% DMSO and further diluted in 100% DMSO required concentration to 1 mM stocks. The stock compound solutions and DMSO vehicle controls were diluted to target final compound concentrations using assay buffer to a final concentration of 50 mM HEPES containing 100 mM NaCl, pH adjusted to 7.5. The MAS peptide was formulated to a 7.5 mM stock in distilled water and prior to use further diluted 1:4. […] 40 μl of enzyme was mixed with 100 μl of MnCl2 then further diluted in assay buffer to a final concentration of 16 μg/ml. To test for compound effect on MetAP2 enzyme activity, 5 μl of test compound, 10 μl of MAS substrate/amino acid oxidase mixture, 10 μl of MetAP2 was added to test wells in a 384 well black plate with blank wells containing no enzyme, replaced with 10 μl of assay buffer. All compounds were tested in duplicate on two occasions on the same day.
The plate was sealed with a TopSeal A cover and mixed briefly on an orbital mixer at 900 rpm. The plate was incubated for a further 25 minutes at 25° C. A 5× stock of Amplex buffer was prepared (0.25M sodium phosphate, pH 7.4) and stored at 4° C. […] 25 μl detection reagent was added to each well of the test plate, which was re-sealed and mixed briefly on an orbital shaker.

[4] abbreviates: 6 mpk, subcutaneous, once every three days, Gestation Days 6-18, pregnant rats.
Setting [5] is: DIO rat, 0.3 mpk sc, once a day for 11 days.
Setting [6] is: DIO mouse, 0.3 mpk sc, once a day for 10 days.
Where [7] appears, read: DIO rat, 1.0 mpk sc, once a day for 11 days.
Where [8] appears, read: DIO mouse, once a day for 10 days.

Molecules are shown by their SMILES. pIC50: −log10 of the molar value. Structures can show the parent of a compound that is named as a salt. Where two headings read alike, the source gives them in different places. Where only a bound is given, the exact number is not on record here.

By pIC50 is commonly meant the IC50 on a negative log10 scale, so that one unit is a factor of ten.

Sequence of recombinant human MetAP2 (P50579 whole entry): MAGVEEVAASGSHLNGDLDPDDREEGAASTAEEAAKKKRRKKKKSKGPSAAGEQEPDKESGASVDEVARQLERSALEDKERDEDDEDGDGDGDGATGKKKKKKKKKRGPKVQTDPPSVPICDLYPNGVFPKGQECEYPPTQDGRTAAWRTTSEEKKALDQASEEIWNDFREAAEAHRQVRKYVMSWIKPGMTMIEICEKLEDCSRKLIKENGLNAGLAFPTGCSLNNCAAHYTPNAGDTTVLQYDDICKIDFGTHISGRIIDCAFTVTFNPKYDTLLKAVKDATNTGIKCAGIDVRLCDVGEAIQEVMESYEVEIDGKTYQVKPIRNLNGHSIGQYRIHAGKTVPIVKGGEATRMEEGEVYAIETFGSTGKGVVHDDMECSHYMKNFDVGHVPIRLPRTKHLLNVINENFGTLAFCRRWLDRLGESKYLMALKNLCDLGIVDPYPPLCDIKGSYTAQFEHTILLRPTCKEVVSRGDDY

Turning to `CO[C@@H]1[C@H](OC(=O)/C=C/c2ccc(OCCN(C)C)cc2)CC[C@]2(CO2)[C@H]1[C@@]1(C)O[C@@H]1CC=C(C)C` [A, [(3R,6R,7S,8S)-7-methoxy-8-[(2R,3R)-2-methyl-3-(3-methylbut-2-enyl)oxiran-2-yl]-2-oxaspiro[2.5]octan-6-yl] (E)-3-[4-[2-(dimethylamino)ethoxy]phenyl]prop-2-enoate, reference compound], in series [1] (setting [4]), the “Rat Embryofetal @6 mpk” value is on record as “Positive”. The inhibition in vivo at 0.3 mg/kg in series [2] (setting [5]) was determined as 20%; in series [3] (setting [6]), 18%.
With `CO[C@@H]1[C@H](OC(=O)N2CC(CCN3CCOCC3)C2)CC[C@]2(CO2)[C@H]1[C@@]1(C)O[C@@H]1CC=C(C)C` [Example 1, (3R,4S,5S,6R)-5-methoxy-4-((2R,3R)-2-methyl-3-(3-methylbut-2-en-1-yl)oxiran-2-yl)-1-oxaspiro[2.5]octan-6-yl 3-(2-morpholinoethyl)azetidine-1-carboxylate], the “Rat Embryofetal @6 mpk” value in series [1] (setting [4]) was “Negative”. In addition, the inhibition in vivo at 0.3 mg/kg in series [2] (setting [5]) came out at 5.7%; in series [3] (setting [6]), 16.8%. For the same compound, the inhibition in vivo at 1 mg/kg in series [2] (setting [7]) amounted to 7.7%.
On to `CO[C@@H]1[C@H](OC(=O)N2CC(CCN3CC(F)(F)C3)C2)CC[C@]2(CO2)[C@H]1[C@@]1(C)O[C@@H]1CC=C(C)C` [Example 2, (3R,4S,5S,6R)-5-methoxy-4-((2R,3R)-2-methyl-3-(3-methylbut-2-enyl)oxiran-2-yl)-1-oxaspiro[2.5]octan-6-yl 3-(2-(3,3-difluoroazetidin-1-yl)ethyl)azetidine-1-carboxylate], for which the “Rat Embryofetal @6 mpk” value in series [1] (setting [4]) was “Negative”. Also, the inhibition in vivo at 0.3 mg/kg in series [2] (setting [5]) was 5.7%; in series [3] (setting [6]), 19.7%. Moreover, the inhibition in vivo at 1 mg/kg in series [2] (setting [7]) came out at 6.4%; in series [3] (setting [8]) it was 24.2%. For the same compound, the inhibition in vivo at 0.1 mg/kg in series [3] (setting [8]) was 14.2%.
Turning to `CO[C@@H]1[C@H](OC(=O)N2CC(CCN3CC(O)C3)C2)CC[C@]2(CO2)[C@H]1[C@@]1(C)O[C@@H]1CC=C(C)C` [Example 6, (3R,4S,5S,6R)-5-methoxy-4-((2R,3R)-2-methyl-3-(3-methylbut-2-enyl)oxiran-2-yl)-1-oxaspiro[2.5]octan-6-yl 3-(2-(3-hydroxyazetidin-1-yl)ethyl)azetidine-1-carboxylate formate], the “Rat Embryofetal @6 mpk” value in series [1] (rat, in vivo) was “Positive”. Further, in series [2] (Rattus norvegicus, sc), the inhibition in vivo at 0.3 mg/kg worked out at 0.8% and the inhibition in vivo at 1 mg/kg was 4.6%. In series [3] (Mus musculus, sc), the inhibition in vivo at 0.3 mg/kg stood at 11.8%.
Regarding `CO[C@@H]1[C@H](OC(=O)N2CC(CCN3CC(C)(O)C3)C2)CC[C@]2(CO2)[C@H]1[C@@]1(C)O[C@@H]1CC=C(C)C` [Example 9, (3R,4S,5S,6R)-5-methoxy-4-((2R,3R)-2-methyl-3-(3-methylbut-2-enyl)oxiran-2-yl)-1-oxaspiro[2.5]octan-6-yl 3-(2-(3-hydroxy-3-methylazetidin-1-yl)ethyl)azetidine-1-carboxylate formate], the “Rat Embryofetal @6 mpk” value in series [1] (rat, in vivo) was “Positive”. For the same compound, in series [2] (Rattus norvegicus, sc), the inhibition in vivo at 0.3 mg/kg stood at 5.5% and the inhibition in vivo at 1 mg/kg was found to be 4.8%. The inhibition in vivo at 0.3 mg/kg in series [3] (Mus musculus, sc) was found to be 7.4%.
Regarding `CO[C@@H]1[C@H](OC(=O)N2CC(CCN3CC4C(C3)C4(F)F)C2)CC[C@]2(CO2)[C@H]1[C@@]1(C)O[C@@H]1CC=C(C)C` (stereo partly drawn) [Example 22, (3R,4S,5S,6R)-5-methoxy-4-((2R,3R)-2-methyl-3-(3-methylbut-2-enyl)oxiran-2-yl)-1-oxaspiro[2.5]octan-6-yl 3-(2-(6,6-difluoro-3-azabicyclo[3.1.0]hexan-3-yl)ethyl)azetidine-1-carboxylate formate], in series [1] (rat, in vivo), the “Rat Embryofetal @6 mpk” value is recorded as “Negative”. The inhibition in vivo at 0.3 mg/kg in series [3] (Mus musculus, sc) was 14%.
Take `CNC(=O)OC1CN(C(=O)O[C@@H]2CC[C@]3(CO3)[C@@H]([C@@]3(C)O[C@@H]3CC=C(C)C)[C@@H]2OC)C1` [Example 74, (3R,4S,5S,6R)-5-methoxy-4-((2R,3R)-2-methyl-3-(3-methylbut-2-enyl)oxiran-2-yl)-1-oxaspiro[2.5]octan-6-yl 3-(methylcarbamoyloxy)azetidine-1-carboxylate]: the pIC50 on recombinant human MetAP2 is more than 7.30. For the same compound, the “Rat Embryofetal @6 mpk” value in series [1] (setting [4]) is reported as “Negative”. Also, the results for the inhibition in vivo at 0.3 mg/kg in series [2] (setting [5]) and in series [3] (setting [6]) were 7.9% and 12.3%, respectively. Further, the inhibition in vivo at 1 mg/kg in series [2] (setting [7]) was 6%.
With `CO[C@@H]1[C@H](OC(=O)N2CC(OC(=O)N3CCN(C)CC3)C2)CC[C@]2(CO2)[C@H]1[C@@]1(C)O[C@@H]1CC=C(C)C` [Example 78, 1-(((3R,4S,5S,6R)-5-methoxy-4-((2R,3R)-2-methyl-3-(3-methylbut-2-enyl)oxiran-2-yl)-1-oxaspiro[2.5]octan-6-yloxy)carbonyl)azetidin-3-yl 4-methylpiperazine-1-carboxylate], the “Rat Embryofetal @6 mpk” value in series [1] (setting [4]) is “Positive”. Moreover, the inhibition in vivo at 0.3 mg/kg in series [2] (setting [5]) came out at 1.2%; in series [3] (setting [6]) it was 10.7%.
As for `CO[C@@H]1[C@H](OC(=O)N2CC(OC(=O)N3CCN(CC(F)(F)F)CC3)C2)CC[C@]2(CO2)[C@H]1[C@@]1(C)O[C@@H]1CC=C(C)C` [Example 81, 1-(((3R,4S,5S,6R)-5-methoxy-4-((2R,3R)-2-methyl-3-(3-methylbut-2-enyl)oxiran-2-yl)-1-oxaspiro[2.5]octan-6-yloxy)carbonyl)azetidin-3-yl 4-(2,2,2-trifluoroethyl)piperazine-1-carboxylate], the “Rat Embryofetal @6 mpk” value in series [1] (setting [4]) is on record as “Positive”. Besides, the inhibition in vivo at 0.3 mg/kg in series [3] (setting [6]) is 16.9%.
As for `CO[C@@H]1[C@H](OC(=O)N2CC(Cc3ccc(C)nc3)C2)CC[C@]2(CO2)[C@H]1[C@@]1(C)O[C@@H]1CC=C(C)C` [Example 101, (3R,4S,5S,6R)-5-methoxy-4-((2R,3R)-2-methyl-3-(3-methylbut-2-enyl)oxiran-2-yl)-1-oxaspiro[2.5]octan-6-yl 3-((6-methylpyridin-3-yl)methyl)azetidine-1-carboxylate], the “Rat Embryofetal @6 mpk” value in series [1] (setting [4]) is “Positive”. The inhibition in vivo at 0.3 mg/kg in series [2] (setting [5]) is 3.9%; in series [3] (setting [6]), 15.6%.
Turning to `CCN(CC)CCCC1CN(C(=O)O[C@@H]2CC[C@]3(CO3)[C@@H]([C@@]3(C)O[C@@H]3CC=C(C)C)[C@@H]2OC)C1` [Example 104, (3R,4S,5S,6R)-5-methoxy-4-((2R,3R)-2-methyl-3-(3-methylbut-2-enyl)oxiran-2-yl)-1-oxaspiro[2.5]octan-6-yl 3-(3-(diethylamino)propyl)azetidine-1-carboxylate], the “Rat Embryofetal @6 mpk” value in series [1] (setting [4]) is “Positive”. Also, the values for the inhibition in vivo at 0.3 mg/kg in series [2] (setting [5]) and in series [3] (setting [6]) were 1.2% and 6.4%, respectively. In addition, the figures for the inhibition in vivo at 1 mg/kg in series [2] (setting [7]) and in series [3] (setting [8]) were 9.9% and 10.9%, respectively. Besides, in series [3] (DIO mouse, 0.03 mpk sc, once a day for 10 days), the inhibition in vivo at 0.03 mg/kg is -0.9%. Moreover, the inhibition in vivo at 0.1 mg/kg in series [3] (setting [8]) was 8.3%.
